This is an account of results in US9416115B2, “Fused heterocyclic compounds as ion channel modulators” (Gilead Sciences, Inc., priority 2013, dated 2016).

For assay [1], the target named is wild-type human cardiac sodium channel, hNav1.5 (Homo sapiens, UniProt Q14524). Briefly: Peak INa screening assay (tonic block and use-dependent block). Type of assay: cell-based. An outline of the steps: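 HEK293 cells stably expressing hNav1.5 (no beta subunits), automated whole-cell patch clamp at 23-25° C, 40 mM Na+ bath (choline substitution), pH 7.35. Compound at 1 or 3 μM, added twice then 200 s equilibration; tonic block by steps to −20 mV from −100 mV at 0.1 Hz, use-dependent block at pulse 50 of a 3 Hz train, rundown-corrected versus compound-free.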
Sequence of wild-type human cardiac sodium channel, hNav1.5 (Q14524 whole entry): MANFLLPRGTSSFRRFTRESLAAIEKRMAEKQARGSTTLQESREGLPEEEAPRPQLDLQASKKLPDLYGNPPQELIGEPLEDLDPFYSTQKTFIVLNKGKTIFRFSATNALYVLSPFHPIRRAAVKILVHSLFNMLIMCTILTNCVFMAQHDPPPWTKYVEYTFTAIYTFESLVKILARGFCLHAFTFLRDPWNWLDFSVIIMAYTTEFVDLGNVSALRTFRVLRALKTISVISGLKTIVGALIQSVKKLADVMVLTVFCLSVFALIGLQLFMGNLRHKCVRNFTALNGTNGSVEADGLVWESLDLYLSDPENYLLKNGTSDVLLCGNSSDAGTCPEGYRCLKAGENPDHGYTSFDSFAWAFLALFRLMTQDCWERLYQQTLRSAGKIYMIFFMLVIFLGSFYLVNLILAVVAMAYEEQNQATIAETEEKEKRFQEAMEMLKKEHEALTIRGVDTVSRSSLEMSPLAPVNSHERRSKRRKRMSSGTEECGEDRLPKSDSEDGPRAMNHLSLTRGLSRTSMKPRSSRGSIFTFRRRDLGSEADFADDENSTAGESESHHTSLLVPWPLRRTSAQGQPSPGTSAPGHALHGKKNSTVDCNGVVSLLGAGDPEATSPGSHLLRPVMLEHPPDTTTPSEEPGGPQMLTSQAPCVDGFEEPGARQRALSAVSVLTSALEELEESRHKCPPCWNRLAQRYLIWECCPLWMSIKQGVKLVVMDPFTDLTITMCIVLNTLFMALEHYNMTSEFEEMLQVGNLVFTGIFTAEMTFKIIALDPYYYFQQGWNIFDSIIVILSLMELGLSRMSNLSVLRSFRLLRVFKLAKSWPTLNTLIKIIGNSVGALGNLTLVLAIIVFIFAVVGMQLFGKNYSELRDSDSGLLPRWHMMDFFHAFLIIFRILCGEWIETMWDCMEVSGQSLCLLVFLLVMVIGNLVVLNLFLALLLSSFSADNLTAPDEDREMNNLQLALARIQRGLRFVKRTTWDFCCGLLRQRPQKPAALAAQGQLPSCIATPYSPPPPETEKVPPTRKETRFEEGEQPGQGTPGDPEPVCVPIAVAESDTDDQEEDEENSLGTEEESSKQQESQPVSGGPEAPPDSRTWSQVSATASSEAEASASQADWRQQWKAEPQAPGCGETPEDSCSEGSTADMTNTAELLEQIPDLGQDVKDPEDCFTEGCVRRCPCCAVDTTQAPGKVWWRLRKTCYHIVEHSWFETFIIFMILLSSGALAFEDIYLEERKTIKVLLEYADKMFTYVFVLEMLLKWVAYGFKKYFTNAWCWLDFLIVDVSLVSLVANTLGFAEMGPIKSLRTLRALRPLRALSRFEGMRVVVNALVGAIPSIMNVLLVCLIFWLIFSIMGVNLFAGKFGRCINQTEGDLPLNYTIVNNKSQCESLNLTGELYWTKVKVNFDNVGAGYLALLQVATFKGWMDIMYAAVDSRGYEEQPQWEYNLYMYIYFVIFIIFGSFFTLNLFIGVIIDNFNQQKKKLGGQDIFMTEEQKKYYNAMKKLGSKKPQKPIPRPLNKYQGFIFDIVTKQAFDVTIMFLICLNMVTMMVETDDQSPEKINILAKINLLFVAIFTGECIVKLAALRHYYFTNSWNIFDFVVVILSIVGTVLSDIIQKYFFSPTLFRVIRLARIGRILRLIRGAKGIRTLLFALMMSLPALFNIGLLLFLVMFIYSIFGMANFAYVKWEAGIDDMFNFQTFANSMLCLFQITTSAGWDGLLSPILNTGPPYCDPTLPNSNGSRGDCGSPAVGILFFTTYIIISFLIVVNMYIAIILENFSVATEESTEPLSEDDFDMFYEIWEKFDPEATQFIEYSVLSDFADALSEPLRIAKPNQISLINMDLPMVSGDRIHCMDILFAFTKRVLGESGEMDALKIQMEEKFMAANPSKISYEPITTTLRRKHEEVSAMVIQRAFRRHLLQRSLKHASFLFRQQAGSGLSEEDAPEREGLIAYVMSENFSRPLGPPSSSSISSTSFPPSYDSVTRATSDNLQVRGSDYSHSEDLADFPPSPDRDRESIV

Another assay addresses hNav1.1 (SCN1A) (Homo sapiens, UniProt P35498). As to the kind of experiment: Use-dependent inhibition of the CNS Nav1.1 sodium channel. The assay is classed as cell-based. The following applies: use-dependent block, 25 Hz, pulse 20, read-out: Nav1.1 UDB 25 Hz 10 uM. A digest of the protocol:
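HEK-293 cells stably expressing WT hNav1.1, automated whole-cell patch clamp at 23-25 °C with CsF-based internal and NaCl external solutions, pH 7.35. Compound applied twice, 200 s equilibration; block measured at pulse 20 of a 25 Hz train (0 mV, 20 ms) from −120 mV, as mean % inhibition versus compound-free.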

Setting [2] is: tonic block of Peak INa, 0.1 Hz, holding -100 mV, read-out: Peak TB 3 uM.
Where [3] appears, read: use-dependent block of Peak INa, 3 Hz, pulse 50, read-out: Peak UDB 3 Hz 3 uM.

Molecules are shown by their SMILES. Read-outs that look alike come from different tables or passages of the source. Bounds are passed on as bounds.

On to `Fc1cc(-c2ccc(OC(F)(F)F)cc2)cc2c(OCc3ncccn3)noc12` [Example 17, 7-fluoro-3-(pyrimidin-2-ylmethoxy)-5-(4-(trifluoromethoxy)phenyl)benzo[d]isoxazole], for which the inhibition at 3 µM in assay [1] (setting [2]) is 28.9%; in assay [1] (setting [3]), less than 5%. Further, the inhibition at 10 µM on hNav1.1 (SCN1A) was 5.9%.
In the case of `Cc1cc(-c2cc(C)c3onc(OCc4ncccn4)c3c2)ccc1OC(F)(F)F` [Example 18, 7-methyl-5-(3-methyl-4-(trifluoromethoxy)phenyl)-3-(pyrimidin-2-ylmethoxy)benzo[d]isoxazole], the inhibition at 3 µM came to 27.7% in assay [1] (setting [2]) and 5.2% in assay [1] (setting [3]). The inhibition at 10 µM at hNav1.1 (SCN1A) is less than 5%.
Turning to `FC(F)(F)COc1ccc(-c2ccc3onc(OCc4ncccn4)c3c2)cn1` [Example 21, 3-(pyrimidin-2-ylmethoxy)-5-(6-(2,2,2-trifluoroethoxy)pyridin-3-yl)benzo[d]isoxazole], the results for the inhibition at 3 µM in assay [1] (setting [2]) and in assay [1] (setting [3]) were 13% and less than 5%, respectively. Also, the inhibition at 10 µM on hNav1.1 (SCN1A) is less than 5%.
With `COc1cc(-c2ccc(OC(F)(F)F)c(C)c2)cc2c(OCc3ncccn3)noc12` [Example 23, 7-methoxy-5-(3-methyl-4-(trifluoromethoxy)phenyl)-3-(pyrimidin-2-ylmethoxy)benzo[d]isoxazole], the inhibition at 3 µM in assay [1] (setting [3]) is less than 5%. Further, the inhibition at 10 µM at hNav1.1 (SCN1A) was less than 5%.
As to `COc1cc(-c2ccc(C(F)(F)F)cc2F)cc2c(OCc3ncccn3)noc12` [Example 24, 5-(2-fluoro-4-(trifluoromethyl)phenyl)-7-methoxy-3-(pyrimidin-2-ylmethoxy)benzo[d]isoxazole], the inhibition at 3 µM was 10% in assay [1] (setting [2]) and less than 5% in assay [1] (setting [3]). In addition, on hNav1.1 (SCN1A), the inhibition at 10 µM is less than 5%.
`COc1cc(-c2ccc(OC(F)(F)F)cc2C)cc2c(OCc3ncccn3)noc12` [Example 25, 7-methoxy-5-(2-methyl-4-(trifluoromethoxy)phenyl)-3-(pyrimidin-2-ylmethoxy)benzo[d]isoxazole]: the figures for the inhibition at 3 µM in assay [1] (setting [2]) and in assay [1] (setting [3]) were 12% and less than 5%, respectively. The inhibition at 10 µM at hNav1.1 (SCN1A) is less than 5%.
As for `Cc1cc2onc(OCc3ncccn3)c2cc1-c1ccc(OC(F)(F)F)cc1` [Example 26, 6-methyl-3-(pyrimidin-2-ylmethoxy)-5-(4-(trifluoromethoxy)phenyl)benzo[d]isoxazole], the inhibition at 3 µM is 27.8% in assay [1] (setting [2]) and less than 5% in assay [1] (setting [3]). Further, at hNav1.1 (SCN1A), the inhibition at 10 µM turned out to be 58.6%.
As for `Cc1cc(-c2cc3c(OCc4ncccn4)noc3cc2C)ccc1OC(F)(F)F` [Example 27, 6-methyl-5-(3-methyl-4-(trifluoromethoxy)phenyl)-3-(pyrimidin-2-ylmethoxy)benzo[d]isoxazole], the inhibition at 3 µM in assay [1] (setting [2]) was 20.8%; in assay [1] (setting [3]) it was less than 5%. Further, the inhibition at 10 µM on hNav1.1 (SCN1A) is less than 5%.
For the molecule `Cc1cc(OC(F)(F)F)ccc1-c1cc2c(OCc3ncccn3)noc2cc1C` [Example 29, 6-methyl-5-(2-methyl-4-(trifluoromethoxy)phenyl)-3-(pyrimidin-2-ylmethoxy)benzo[d]isoxazole], the inhibition at 3 µM was 8.1% in assay [1] (setting [2]) and less than 5% in assay [1] (setting [3]). The inhibition at 10 µM at hNav1.1 (SCN1A) was less than 5%.
On to `FC1(F)Oc2ccc(-c3ccc4onc(OCc5ncccn5)c4c3)cc2O1` [Example 30, 5-(2,2-difluorobenzo[d][1,3]dioxol-5-yl)-3-(pyrimidin-2-ylmethoxy)benzo[d]isoxazole], for which the results for the inhibition at 3 µM in assay [1] (setting [2]) and in assay [1] (setting [3]) were 15.2% and less than 5%, respectively. In addition, the inhibition at 10 µM at hNav1.1 (SCN1A) was less than 5%.
Turning to `Fc1cc2onc(OCc3ncccn3)c2cc1-c1ccc(OC(F)(F)F)cc1` [Example 31, 6-fluoro-3-(pyrimidin-2-ylmethoxy)-5-(4-(trifluoromethoxy)phenyl)benzo[d]isoxazole], the inhibition at 3 µM in assay [1] (setting [2]) is 18.5%; in assay [1] (setting [3]), less than 5%. The inhibition at 10 µM on hNav1.1 (SCN1A) is less than 5%.
In the case of `Fc1cc(C(F)(F)F)ccc1-c1cc2c(OCc3ncccn3)noc2cc1F` [Example 33, 6-fluoro-5-(2-fluoro-4-(trifluoromethyl)phenyl)-3-(pyrimidin-2-ylmethoxy)benzo[d]isoxazole], the inhibition at 3 µM in assay [1] (setting [2]) was determined as 20.9%; in assay [1] (setting [3]), 5.1%. For the same molecule, at hNav1.1 (SCN1A), the inhibition at 10 µM is less than 5%.
For the molecule `Fc1cc2onc(OCc3ncccn3)c2cc1-c1ccc2c(c1)OC(F)(F)O2` [Example 35, 5-(2,2-difluorobenzo[d][1,3]dioxol-5-yl)-6-fluoro-3-(pyrimidin-2-ylmethoxy)benzo[d]isoxazole], the inhibition at 3 µM in assay [1] (setting [2]) was 17.4%; in assay [1] (setting [3]), less than 5%. On hNav1.1 (SCN1A), the inhibition at 10 µM was less than 5%.
Turning to `Cn1cc(COc2noc3ccc(-c4ccc(OC(F)(F)F)cc4)cc23)nn1` [Example 44], the inhibition at 3 µM was 29.9% in assay [1] (setting [2]) and 10.4% in assay [1] (setting [3]). The inhibition at 10 µM on hNav1.1 (SCN1A) turned out to be 21.1%.
On the same counts, the results for `FC(F)(F)Oc1ccc(-c2ccc3onc(OCc4cn[nH]c4)c3c2)cc1` [Example 45, 3-((1H-pyrazol-4-yl)methoxy)-5-(4-(trifluoromethoxy)phenyl)benzo[d]isoxazole] are 16.8%, 15.1% and 63.8%.
In the same order, the values of `CC(C)n1ccnc1COc1noc2ccc(-c3ccc(OC(F)(F)F)cc3)cc12` [Example 48, 3-((1-isopropyl-1H-imidazol-2-yl)methoxy)-5-(4-(trifluoromethoxy)phenyl)benzo[d]isoxazole] are 9.1%, 5.7% and 52.8%.
In the same order, the values of `CCn1cncc1COc1noc2ccc(-c3ccc(OC(F)(F)F)cc3)cc12` [Example 49, 3-((1-ethyl-1H-imidazol-5-yl)methoxy)-5-(4-(trifluoromethoxy)phenyl)benzo[d]isoxazole] are 16.9%, less than 5% and 56.4%.
`Cn1cncc1COc1noc2ccc(-c3ccc(OC(F)(F)F)cc3)cc12` [Example 50, 3-((1-methyl-1H-imidazol-5-yl)methoxy)-5-(4-(trifluoromethoxy)phenyl)benzo[d]isoxazole]: in assay [1] (setting [3]), the inhibition at 3 µM is less than 5%. The inhibition at 10 µM on hNav1.1 (SCN1A) was found to be 49.2%.
On to `FC(F)(F)Oc1ccc(-c2ccc3onc(OCc4cn5ccccc5n4)c3c2)cc1` [Example 51, 3-(imidazo[1,2-a]pyridin-2-ylmethoxy)-5-(4-(trifluoromethoxy)phenyl)benzo[d]isoxazole], for which the inhibition at 3 µM in assay [1] (setting [2]) worked out at 12.3%; in assay [1] (setting [3]), 7.7%. On hNav1.1 (SCN1A), the inhibition at 10 µM was found to be 30%.
On the same counts, the results for `O=C1CC[C@H](COc2noc3ccc(-c4ccc(OC(F)(F)F)cc4)cc23)N1` [Example 61, (R)-5-(((5-(4-(trifluoromethoxy)phenyl)benzo[d]isoxazol-3-yl)oxy)methyl)pyrrolidin-2-one] are 11.8%, 6.6% and 28.7%.
In the same order, the values of `FC(F)(F)Oc1ccc(-c2ccc3onc(OCCn4cnnc4)c3c2)cc1` [Example 63, 3-(2-(4H-1,2,4-triazol-4-yl)ethoxy)-5-(4-(trifluoromethoxy)phenyl)benzo[d]isoxazole] are 39%, 13.3% and 77.6%.
For the molecule `FC(F)(F)Oc1ccc(-c2ccc3onc(OCc4nccn4-c4ccccc4)c3c2)cc1` [Example 64, 3-((1-phenyl-1H-imidazol-2-yl)methoxy)-5-(4-(trifluoromethoxy)phenyl)benzo[d]isoxazole], the inhibition at 3 µM in assay [1] (setting [2]) was 10.1%; in assay [1] (setting [3]), less than 5%. Moreover, the inhibition at 10 µM on hNav1.1 (SCN1A) worked out at 33.2%.
In the same order, the values of `Cc1nc(C)n(CCOc2noc3ccc(-c4ccc(OC(F)(F)F)cc4)cc23)n1` [Example 76, 3-(2-(3,5-dimethyl-1H-1,2,4-triazol-1-yl)ethoxy)-5-(4-(trifluoromethoxy)phenyl)benzo[d]isoxazole] are 49.9%, less than 5% and 27.2%.
Regarding `CC(COc1noc2ccc(-c3ccc(OC(F)(F)F)cc3)cc12)n1cncn1` (stereo not shown) [Example 77, 3-(2-(1H-1,2,4-triazol-1-yl)propoxy)-5-(4-(trifluoromethoxy)phenyl)benzo[d]isoxazole], the inhibition at 3 µM came out at 34.6% in assay [1] (setting [2]) and 8.3% in assay [1] (setting [3]). For the same molecule, on hNav1.1 (SCN1A), the inhibition at 10 µM was 49.2%.
In the same order, the values of `FC(F)(F)Oc1ccc(-c2ccc3onc(OCCN4CCOCC4)c3c2)cc1` [Example 78, 3-(2-morpholinoethoxy)-5-(4-(trifluoromethoxy)phenyl)benzo[d]isoxazole] are 38.7%, 19.5% and 39.9%.
Take `Cc1nc(C)n(C(C)COc2noc3ccc(-c4ccc(OC(F)(F)F)cc4)cc23)n1` (stereo not shown) [Example 79, 3-(2-(3,5-dimethyl-1H-1,2,4-triazol-1-yl)propoxy)-5-(4-(trifluoromethoxy)phenyl)benzo[d]isoxazole]: the values for the inhibition at 3 µM in assay [1] (setting [2]) and in assay [1] (setting [3]) were 26% and less than 5%, respectively. Moreover, the inhibition at 10 µM at hNav1.1 (SCN1A) is 36.8%.
In the same order, the values of `O=C1CCCN1CCOc1noc2c(F)cc(-c3ccc(OC(F)(F)F)cc3)cc12` [Example 80, 1-(2-((7-fluoro-5-(4-(trifluoromethoxy)phenyl)benzo[d]isoxazol-3-yl)oxy)ethyl)pyrrolidin-2-one] are 17.3%, 13.7% and 19.8%.
